Measurements published in PMC10709007, “GPR162 is a beta cell CART receptor” (iScience, 2023).
“Also recorded” adds a separate entry of the source. Where no end group is shown, it is not given here.

What was measured:
GIP receptor = assay: Proximity ligation assay (PLA) CART-GIP receptor (specificity control); assay type: binding, rat; conditions: control experiment, goat anti-CART with rabbit anti-GIP receptor
Description: INS-1 832/13 cells were seeded in 8-well tissue culture chambers (Sarstedt, Nümbrecht, Germany). 10^−7M rat CARTp55-102 (Phoenix Pharmaceuticals, Burlingame, CA) was added to fresh media and cells were incubated for 5 min in a humidified atmosphere (37°C, 5% CO2). Cells were rinsed quickly in ice-cold 1XPBS and then washed twice with ice-cold PBS. Cells were then fixed for 20 min in 4% paraformaldehyde, washed 2 × 10 min in 1XPBS and permeabilized for 15 min in PBS +0.25% Triton X-100. Proximity ligation assay (PLA) (DuoLink In situ Red Starter Kit Goat/Rabbit, Sigma Aldrich) was performed according to the instructions provided by the manufacturers. The following antibody combinations were used for the PLA: goat anti-GPR162 (sc-138323, dilution 1:500, Santa Cruz) with rabbit anti-CART (code 2059A, dilution 1:5000, kindly provided by Dr. Jes T. Clausen, Novo Nordisk, Måløv, Denmark), and goat anti-CART (code sc-18068, dilution 1:400, Santa Cruz) with rabbit anti-GPR162 (code PA5-33655, dilution 1:500, Thermo Scientific). Anti-rabbit GPR160 (code PA5-33650) was combined with anti-goat CART (code sc-18068 from Santa Cruz). Anti-rabbit GNA13 (PA5-100644) was combined with anti-goat GPR162 (sc-138323). Negative controls were omission of both antibodies and the combination of the CART antibody with an antibody toward a receptor with a known ligand. […]

INS-1 832/13 cells [1] = assay: Whole-cell capacitance measurement (exocytosis), patch-clamp; assay type: cell-based, rat
Description: Whole-cell capacitance measurement was performed in INS-1 832/13 cells using HEKA EPC10 patch-clamp amplifiers with the software Suite Pulse + X-Chart Extension (version 8.6 or later; HEKA, Lambrecht-Pfalz, Germany) as previously described.[40] Briefly, INS-1 832/13 cells were seeded in Nunc plastic petri dishes one day prior to the measurement. The intracellular pipette solution contained 125 mM Cs-glutamate, 10 mM CsCl, 10 mM NaCl, 1 mM MgCl2, 5 mM HEPES, 3 mM Mg-ATP, 0.1 mM cAMP and 0.05 mM EGTA (pH 7.2 with CsOH). The perfusing extracellular solution was composed of 118 mM NaCl, 20 mM tetraethylammonium chloride, 5.6 mM KCl, 2.6 mM CaCl2, 1.2 mM MgCl2, 5 mM HEPES and 5 mM glucose (pH 7.4), and the temperature was maintained at 32°C.

INS-1 832/13 cells [2] = assay: Actin staining (phalloidin) in INS-1 832/13 cells; assay type: cell-based, rat; conditions: 10^-7M CARTp55-102, 24 h, n = 6
Description: INS-1 832/13 cells (a rat insulinoma cell line of male origin) were cultured in RPMI 1640 medium (Sigma Aldrich, St. Louis, MO) containing 2 g/L D-glucose, supplemented with 10% FBS, 10 mM HEPES, 1 mM sodium pyruvate and 50 μM β-mercaptoethanol (Sigma Aldrich) in a humidified atmosphere (37°C, 5% CO2). For investigations of actin architecture, INS-1 832/13 cells were seeded in 8-well chamber slides (Sarstedt) and transfected as described below before being fixed, permeabilized and stained with phalloidin (Phalloidin-iFluor488, Abcam, Cambridge, UK) for 60 min. Nuclei were counter-stained with DAPI and F-actin was visualized using Phalloidin-iFluor488 (Abcam). Phalloidin staining was performed for 60 min at a dilution of 1:1000 (in PBS +0.25% Triton X-100). Phalloidin intensity was quantified using the ImageJ software.

KATO III cells = conditions: KATO III cells, RNA interference of Gpr160; cited from earlier work
Source text: When studying neuropathic pain, Yosten et al.[11] found GPR160 to be necessary for CARTp-mediated cell activation in cell culture. […] Information on GPR160 is scarce, but it has been reported to be a potential marker for prostate cancer,[24] where it is involved in apoptosis and cell-cycle arrest.[25] […] Recently, the notion of GPR160 being the ...

PC-12 cells = conditions: RNA interference of Gpr160; cited from earlier work
Source text: (§1) When studying neuropathic pain, Yosten et al.[11] found GPR160 to be necessary for CARTp-mediated cell activation in cell culture. […] However, whether GPR160 is a receptor for CART in the b ...

[3] = system: dorsal horn of the spinal cord; conditions: intrathecal injections; cited from earlier work
Source text: as §1

rats = conditions: cited from earlier work
Source text: However, much earlier, a fragment of the CART peptide was identified in extracts of sheep hypothalamus.[2] CART was later found to be expressed also in pancreatic islet cells and in nerve fibers innervating the islets.[3]^,[4]^,[5] […] Since then, multiple biological effects of CART have been established.[4]^,[7] Among them is the effect of CART on islet hormone secretion fr ... || When studying neuropathic pain, Yosten et al.[11] found GPR160 to be necessary for CARTp-mediated cell activation in cell culture. […] Information on GPR160 is scarce, but it has been reported to be a potential marker for prostate cancer,[24] where it is involved in apoptosis and cell-cycle arrest.[25] […] Recently, the notion of GPR160 being the ... || (+ 1 further places)

AtT20 = conditions: exogenous CART; cited from earlier work
Source text: (§2) GPR162 was identified as the most CART-affected orphan receptor in INS-1 832/13 cells. […] By showing that CART binds to GPR162 and that biological effects of CART are reduced or ablated after Gpr162 KD, we propose that GPR162 acts as a CART receptor in beta cells. We also established expression of GPR162 in a majority of human and mouse beta cells. Moderate GPR162 immunoreactivity was evident across the cytoplasm and more intense immunoreact ...

INS-1 832/13 cells [4] = conditions: cited from earlier work
Source text: as §2

With “CARTp55-102: Rat, mouse CARTp55-102 (Phoenix Pharmaceuticals, Cat#003-62); human form Cat#003-60; cocaine- and amphetamine-regulated transcript peptide (IPIYEKKYGQVPMCDAGEQCAVRKGARIGKLCDCPRGTSCNSFLLKCL; ends and bridges not checked; cysteine pairing not given here)” the “CART-GIP receptor interaction (PLA control)” value (GIP receptor) was “no interaction was found between CART and the GIP receptor”, the “CART-induced increase in capacitance / exocytosis after Gpr162 KD” value (INS-1 832/13 cells [1]; Gpr162 KD cells, 10^-7M CARTp55-102 1 h, n = 13-14 cells) was “abolished; also recorded: near-complete abolishment” and the Increase in capacitance (INS-1 832/13 cells [1]; control cells, 10^-7M CARTp55-102 for 1 h, 5 mM glucose, 32°C, n = 17 cells) was “approximately 1.3 -fold”. The “Effect of CARTp on actin staining in Gpr162 KD cells” value (INS-1 832/13 cells [2]; listed as CART) was “near-complete abolishment”, the “Effect of CARTp on actin staining in Gpr162 KD cells” value (INS-1 832/13 cells [2]; listed as CARTp) was “without effect; also recorded: lost in Gpr162 KD cells” and the “Increase in actin staining” value (INS-1 832/13 cells [2]; control cells, phalloidin) was “approximately 2 -fold”. For the same substance, the “c-FOS expression after Gpr160 RNA interference” value (KATO III cells) was “RNA interference of Gpr160 prevented CART from activating c-FOS expression”, the “ERK phosphorylation after Gpr160 RNA interference” value (PC-12 cells) was “RNA interference of Gpr160 prevented CART from activating c-FOS expression and phosphorylation of ERK in vitro in KATO III cells and PC-12 cells, respectively” and the “Phosphorylation of ERK and CREB” value [3] was “induced phosphorylation of ERK and CREB”. For the same substance, the “Anorexigenic effects of CART on meal microstructure after Gpr160 knockdown” value (rats; AAV-mediated knockdown of Gpr160 in dorsal vagal complex, rat) was “partially attenuates the anorexigenic effects of CART on meal microstructure”, the Anorexigenic effect (rats) was “anorexigenic effects” and the “Activation of AtT20” value (AtT20) was “capable of activating AtT20”. For the same substance, the cAMP (INS-1 832/13 cells [4]) was “increase cAMP”.
